Experimental findings from patent US20100168102A9, “Amide Derivatives as Kinase Inhibitors” (Devgen NV, priority 2005, published 2010) are described below.

The target in experiment [1] is T1, PKC epsilon (Homo sapiens, UniProt Q02156).
T1 construct: purchased Invitrogen P2282
T1 sequence (Q02156 1-737): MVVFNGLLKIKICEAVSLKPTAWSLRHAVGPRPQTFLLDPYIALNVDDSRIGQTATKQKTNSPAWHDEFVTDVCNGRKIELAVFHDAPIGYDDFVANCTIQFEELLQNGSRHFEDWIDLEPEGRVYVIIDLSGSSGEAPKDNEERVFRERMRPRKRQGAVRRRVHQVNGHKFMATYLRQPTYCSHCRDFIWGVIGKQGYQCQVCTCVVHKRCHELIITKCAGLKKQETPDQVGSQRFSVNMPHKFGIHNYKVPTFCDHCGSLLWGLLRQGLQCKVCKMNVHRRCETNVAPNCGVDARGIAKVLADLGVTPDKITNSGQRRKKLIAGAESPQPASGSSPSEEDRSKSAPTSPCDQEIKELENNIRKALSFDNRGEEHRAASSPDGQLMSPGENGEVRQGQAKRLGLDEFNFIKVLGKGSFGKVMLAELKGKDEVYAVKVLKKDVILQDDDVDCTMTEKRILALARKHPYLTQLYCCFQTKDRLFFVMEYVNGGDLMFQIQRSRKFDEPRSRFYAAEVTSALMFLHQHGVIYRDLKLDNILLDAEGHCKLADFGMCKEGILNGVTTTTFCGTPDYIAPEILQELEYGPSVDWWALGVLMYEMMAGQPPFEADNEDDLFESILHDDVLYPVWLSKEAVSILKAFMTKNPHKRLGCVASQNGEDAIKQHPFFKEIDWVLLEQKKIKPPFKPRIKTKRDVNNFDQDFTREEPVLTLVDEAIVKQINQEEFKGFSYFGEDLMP
In words: Biochemical assay for PKC epsilon (fluorescence polarization, Protein Kinase C Assay Kit, Red). As to conditions: read-out: IC50 μM PKCε. In short, it runs like this:
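PKC epsilon at 10 ng/ml final was preincubated 30 min at room temperature with compound in HEPES pH 7.4 with DTT and Triton X-100. ATP/protein substrate was then added in buffer with MgCl2 and CaCl2 for 80 min. The reaction was stopped with EDTA, phosphorylation was detected by fluorescence polarization with rhodamine tracer and anti-phosphoserine antibody, and IC50 values came from curve fits.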

Experiment [2] deals with T2, human ROCKα/ROCKII mix (Homo sapiens, UniProt O75116).
T2 construct: purchased Upstate Biotechnology 14-451
T2 sequence (O75116 11-552 limits assumed): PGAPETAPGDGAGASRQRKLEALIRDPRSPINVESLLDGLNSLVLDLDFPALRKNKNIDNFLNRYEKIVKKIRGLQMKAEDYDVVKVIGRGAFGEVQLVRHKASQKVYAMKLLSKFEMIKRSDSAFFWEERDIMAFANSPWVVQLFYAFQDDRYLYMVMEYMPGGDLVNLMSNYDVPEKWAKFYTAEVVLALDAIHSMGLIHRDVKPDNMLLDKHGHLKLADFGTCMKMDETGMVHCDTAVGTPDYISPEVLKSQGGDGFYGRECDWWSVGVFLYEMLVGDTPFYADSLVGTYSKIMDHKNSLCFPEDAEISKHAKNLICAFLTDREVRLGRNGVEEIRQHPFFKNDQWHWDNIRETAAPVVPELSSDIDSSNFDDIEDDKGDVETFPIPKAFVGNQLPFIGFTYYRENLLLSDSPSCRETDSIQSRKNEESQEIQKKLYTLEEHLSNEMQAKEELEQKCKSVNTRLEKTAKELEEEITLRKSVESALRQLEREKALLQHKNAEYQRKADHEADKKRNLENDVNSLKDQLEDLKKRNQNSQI
In words: Biochemical assay for ROCK (fluorescence polarization, ROCK IMAP Kit).

The mark [3] stands for this setting: Table 2, compounds of Formula XIII.
Setting [4] is: compounds of Formula XIV, Table 3.

Structures can show the parent of a compound that is named as a salt. Where two headings read alike, the source gives them in different places.

As to `COc1ccc(CC(=O)N2CCCC2C(N)c2ccc(C(=O)Nc3ccncc3)cc2)c(OC)c1` (stereo not shown) [Compound 531, 4-(Amino-{1-[2-(2,4-dimethoxy-phenyl)-acetyl]-pyrrolidin-2-yl}-methyl)-N-pyridin-4-yl-benzamide], the IC50 in experiment [1] and in experiment [2] was 0.5 to 5 µM each time.

As for `NC(CNC(=O)C1CCSc2ccccc21)c1ccc(C(=O)Nc2ccncc2)cc1` (stereo not shown) [Compound 391, Thiochroman-4-carboxylic acid {2-amino-2-[4-(pyridin-4-ylcarbamoyl)-phenyl]-ethyl}-amide], the IC50 in experiment [1] (setting [3]) and in experiment [2] (setting [3]) was 0.05 to 0.5 µM each time.

With `COc1ccc(CCNC(=O)CC(N)c2ccc(C(=O)Nc3ccncc3)cc2)cc1` (stereo not shown) [Compound 291, 4-{1-Amino-2-[2-(4-methoxy-phenyl)-ethylcarbamoyl]-ethyl}-N-pyridin-4-yl-benzamide], the IC50 in experiment [1] (setting [4]) is 0.5 to 5 µM; in experiment [2] (setting [4]), 0.05 to 0.5 µM.

With `NC(CC(=O)NCc1ccccc1Br)c1ccc(C(=O)Nc2ccncc2)cc1` (stereo not shown) [Compound 259, 4-[1-Amino-2-(2-bromo-benzylcarbamoyl)-ethyl]-N-pyridin-4-yl-benzamide], the values for the concentration for half-maximal inhibition (IC50) in experiment [1] (setting [4]) and in experiment [2] (setting [4]) were 0.5 to 5 µM and 0.05 to 0.5 µM, respectively.

Consider `CC(C)(C)ON=Cc1ccc(C(=O)NCC(N)c2ccc(C(=O)Nc3ccncc3)cc2)cc1` (racemic) [Compound 102, 4-{1-amino-2-[(4-tert-butoxyimino-methyl)-benzoylamino]-ethyl}-N-pyridin-4-yl-benzamide], for which the values for the half-inhibitory concentration (IC50) in experiment [1] (setting [3]) and in experiment [2] (setting [3]) were 5 to 50 µM and 0.5 to 5 µM, respectively.

`CN(CC(N)c1ccc(C(=O)Nc2ccncc2)cc1)C(=O)Cc1cc(F)ccc1F` (stereo not shown) [Compound 478, 4-(1-Amino-2-{[2-(2,5-difluoro-phenyl)-acetyl]-methyl-amino}-ethyl)-N-pyridin-4-yl-benzamide]: the IC50 in experiment [1] is 5 to 50 µM; in experiment [2], 0.5 to 5 µM.

As for `NC(CNC(=O)C1CCCCC1)c1ccc(C(=O)Nc2ccncc2)cc1` (stereo not shown) [Compound 43, 4-[1-Amino-2-(cyclohexanecarbonyl-amino)-ethyl]-N-pyridin-4-yl-benzamide], the half-inhibitory concentration (IC50) lay within 5 to 50 µM in experiment [1] (setting [3]) and 0.5 to 5 µM in experiment [2] (setting [3]).

On to `NC(CNC(=O)C1(c2ccc(Cl)c(Cl)c2)CCC1)c1ccc(C(=O)Nc2ccncc2)cc1` (stereo not shown) [Compound 381, 4-(1-Amino-2-{[1-(3,4-dichloro-phenyl)-cyclobutanecarbonyl]-amino}-ethyl)-N-pyridin-4-yl-benzamide], for which the concentration for half-maximal inhibition (IC50) in experiment [1] (setting [3]) and in experiment [2] (setting [3]) was 0.05 to 0.5 µM throughout.

As to `CC(C)(C(=O)NCC(N)c1ccc(C(=O)Nc2ccncc2)cc1)c1ccc(F)c(Cl)c1` (stereo not shown) [Compound 382, 4-{1-Amino-2-[2-(3-chloro-4-fluoro-phenyl)-2-methyl-propionylamino]-ethyl}-N-pyridin-4-yl-benzamide], the results for the IC50 in experiment [1] (setting [3]) and in experiment [2] (setting [3]) were under 0.05 µM and 0.05 to 0.5 µM, respectively.

On to `NC(CNC(=O)Cc1ccc(-c2ccccc2)cc1)c1ccc(C(=O)Nc2ccncc2)cc1` (stereo not shown) [Compound 146, 4-[1-Amino-2-(2-biphenyl-4-yl-acetylamino)-ethyl]-N-pyridin-4-yl-benzamide], for which the IC50 in experiment [1] (setting [3]) lay in the range of 5 to 50 µM; in experiment [2] (setting [3]), 0.5 to 5 µM.

For `NC(CNC(=S)Nc1ccc(C(F)(F)F)cc1)c1ccc(C(=O)Nc2ccncc2)cc1` (stereo not shown) [Compound 16, 4-{1-amino-2-[3-(4-trifluoromethyl-phenyl)-thioureido]-ethyl}-N-pyridin-4-yl-benzamide], the IC50 in experiment [1] and in experiment [2] was 0.5 to 5 µM throughout.

As for `NC(CC(=O)NCc1ccccc1C(F)(F)F)c1ccc(C(=O)Nc2ccncc2)cc1` (stereo not shown) [Compound 263, 4-[1-Amino-2-(2-trifluoromethyl-benzylcarbamoyl)-ethyl]-N-pyridin-4-yl-benzamide], the half-maximal inhibitory concentration (IC50) lay within 0.5 to 5 µM in experiment [1] (setting [4]) and 0.05 to 0.5 µM in experiment [2] (setting [4]).

With `NC(CNC(=O)C1CCOC1)c1ccc(C(=O)Nc2ccncc2)cc1` (stereo not shown) [Compound 65, Tetrahydro-furan-3-carboxylic acid {2-amino-2-[4-(pyridin-4-ylcarbamoyl)-phenyl]-ethyl}-amide], the half-inhibitory concentration (IC50) in experiment [1] (setting [3]) and in experiment [2] (setting [3]) was 0.5 to 5 µM in each case.

Regarding `Cc1ccc(C(=O)NCC(N)c2ccc(C(=O)Nc3ccncc3)cc2)s1` (stereo not shown) [Compound 117, 5-Methyl-thiophene-2-carboxylic acid {2-amino-2-[4-(pyridin-4-ylcarbamoyl)-phenyl]-ethyl}-amide], the IC50 in experiment [1] (setting [3]) and in experiment [2] (setting [3]) was 0.5 to 5 µM in each case.

As to `NC(c1ccc(C(=O)Nc2ccncc2)cc1)C1CCCN1C(=O)Cc1ccc(F)cc1` (stereo not shown) [Compound 572, 4-(Amino-{1-[2-(4-fluoro-phenyl)-acetyl]-pyrrolidin-2-yl}-methyl)-N-pyridin-4-yl-benzamide], the half-inhibitory concentration (IC50) in experiment [1] was 5 to 50 µM; in experiment [2], 0.5 to 5 µM.

As for “4-{1-Amino-2-[(2- benzo[b]thiophen-3-yl- acetyl)-methyl- amino]-ethyl}- N-pyridin-4-yl-benzamide [Compound 444]”, the IC50 in experiment [1] fell in the range of 5 to 50 µM; in experiment [2] it was 0.5 to 5 µM.

In the case of `NC(CNC(=O)c1ccccc1-c1ccccc1)c1ccc(C(=O)Nc2ccncc2)cc1` (stereo not shown) [Compound 87, Biphenyl-2-carboxylic acid {2-amino-2-[4-(pyridin-4-ylcarbamoyl)-phenyl]-ethyl}-amide], the half-inhibitory concentration (IC50) in experiment [1] (setting [3]) and in experiment [2] (setting [3]) was 0.5 to 5 µM in each case.

As for `NC(CNC(=O)NC1CCCCC1)c1ccc(C(=O)Nc2ccncc2)cc1` (stereo not shown) [Compound 5, 4-[1-amino-2-(3-cyclohexyl-ureido)-ethyl]-N-pyridin-4-yl-benzamide], the IC50 in experiment [1] lay in the range of 5 to 50 µM; in experiment [2] it was 0.5 to 5 µM.

With `CC(C)(C(=O)N1CCCC1C(N)c1ccc(C(=O)Nc2ccncc2)cc1)c1ccc(Cl)c(Cl)c1` (stereo not shown) [Compound 593, 4-(Amino-{1-[2-(3,4-dichloro-phenyl)-2-methyl-propionyl]-pyrrolidin-2-yl}-methyl)-N-pyridin-4-yl-benzamide], the figures for the concentration for half-maximal inhibition (IC50) in experiment [1] and in experiment [2] were 5 to 50 µM and 0.5 to 5 µM, respectively.

As to `NC(CNC(=O)CC1CCCC1)c1ccc(C(=O)Nc2ccncc2)cc1` (stereo not shown) [Compound 47, 4-[1-Amino-2-(2-cyclopentyl-acetylamino)-ethyl]-N-pyridin-4-yl-benzamide], the IC50 in experiment [1] (setting [3]) and in experiment [2] (setting [3]) was 0.5 to 5 µM in each case.

As for “4-(1-Amino-2-{[2-(3-fluoro-4- methoxy-phenyl)-acetyl]- methyl- amino}-ethyl)- N-pyridin-4-yl-benzamide [Compound 470]”, the IC50 in experiment [1] is 5 to 50 µM; in experiment [2] it was 0.5 to 5 µM.

As to “4-{1-amino-2-[2-(4-methy)- octanoylamino]-ethyl}-N-pyridin-4-yl- benzamide [Compound 37]”, the IC50 was 0.5 to 5 µM in experiment [1] (setting [3]) and 0.05 to 0.5 µM in experiment [2] (setting [3]).

In the case of `NC(c1ccc(C(=O)Nc2ccncc2)cc1)C1CCCN1C(=O)Cc1ccc(C(F)(F)F)cc1` (stereo not shown) [Compound 559, 4-(Amino-{1-[2-(4-trifluoromethyl-phenyl)-acetyl]-pyrrolidin-2-yl}-methyl)-N-pyridin-4-yl-benzamide], the values for the IC50 in experiment [1] and in experiment [2] were 5 to 50 µM and 0.5 to 5 µM, respectively.

In the case of `NC(CC(=O)NC1CCc2ccccc21)c1ccc(C(=O)Nc2ccncc2)cc1` (stereo not shown) [Compound 228, 4-[1-Amino-2-(indan-1-ylcarbamoyl)-ethyl]-N-pyridin-4-yl-benzamide], the IC50 in experiment [1] (setting [4]) and in experiment [2] (setting [4]) was 0.05 to 0.5 µM throughout.

For the compound “4-{1-Amino-2-[methyl-(1- thiophen-2-yl- cyclopropanecarbonyl)- amino]-ethyl}- N-pyridin-4-yl-benzamide [Compound 448]”, the IC50 is 5 to 50 µM in experiment [1] and 0.5 to 5 µM in experiment [2].

`NC(CNC(=O)Cc1ccc(F)c(F)c1)c1ccc(C(=O)Nc2ccncc2)cc1` (stereo not shown) [Compound 167, 4-{1-Amino-2-[2-(3,4-difluoro-phenyl)-acetylamino]-ethyl}-N-pyridin-4-yl-benzamide dihydrochloride]: the IC50 in experiment [1] (setting [3]) and in experiment [2] (setting [3]) was 0.05 to 0.5 µM throughout.

As to `Cc1ccc(CC(=O)N(C)CC(N)c2ccc(C(=O)Nc3ccncc3)cc2)cc1` (stereo not shown) [Compound 424, 4-{1-Amino-2-[methyl-(2-p-tolyl-acetyl)-amino]-ethyl}-N-pyridin-4-yl-benzamide], the IC50 in experiment [1] fell in the range of 5 to 50 µM; in experiment [2], 0.5 to 5 µM.

Turning to `CS(=O)(=O)NCCNC(=O)CC(N)c1ccc(C(=O)Nc2ccncc2)cc1` (stereo not shown) [Compound 176, 4-[1-amino-2-(2-methanesulfonylamino-ethylcarbamoyl)-ethyl]-N-pyridin-4-yl-benzamide], the IC50 in experiment [1] (setting [4]) lay within 0.5 to 5 µM; in experiment [2] (setting [4]), 0.05 to 0.5 µM.

For the compound `CN(C)c1ccc(NC(=O)NCC(N)c2ccc(C(=O)Nc3ccncc3)cc2)cc1` (stereo not shown) [Compound 21, 4-{1-amino-2-[3-(4-dimethylamino-phenyl)-ureido]-ethyl}-N-pyridin-4-yl-benzamide], the concentration for half-maximal inhibition (IC50) was 0.5 to 5 µM in experiment [1] and 0.05 to 0.5 µM in experiment [2].

As usually defined, the IC50 is the midpoint of a concentration-inhibition curve.
